# In BindingDB's records for patent US20250313563 (The Broad Institute, 2025):
# pIC50: −log10 of the molar value. Where “and” joins values, the source holds several entries; their conditions need not be identical. Identical values can stand only once.
# Key:
# [1] = biological target: Glycogen synthase kinase-3 beta (Homo sapiens, UniProt P49841); assay: TR-FRET Assay
# Summary of the method: (§1)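 TR-FRET readout: streptavidin-d2 (40 nM in added detection mix) plus Tb-anti-pSer641 Ab (2 nM in mix). Steps were 30 min compound preincubation, kinase reaction, then EDTA stop.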
# [2] = biological target: Glycogen synthase kinase-3 alpha (Homo sapiens, UniProt P49840); assay: TR-FRET Assay
# Chain of Glycogen synthase kinase-3 alpha (P49840 whole entry): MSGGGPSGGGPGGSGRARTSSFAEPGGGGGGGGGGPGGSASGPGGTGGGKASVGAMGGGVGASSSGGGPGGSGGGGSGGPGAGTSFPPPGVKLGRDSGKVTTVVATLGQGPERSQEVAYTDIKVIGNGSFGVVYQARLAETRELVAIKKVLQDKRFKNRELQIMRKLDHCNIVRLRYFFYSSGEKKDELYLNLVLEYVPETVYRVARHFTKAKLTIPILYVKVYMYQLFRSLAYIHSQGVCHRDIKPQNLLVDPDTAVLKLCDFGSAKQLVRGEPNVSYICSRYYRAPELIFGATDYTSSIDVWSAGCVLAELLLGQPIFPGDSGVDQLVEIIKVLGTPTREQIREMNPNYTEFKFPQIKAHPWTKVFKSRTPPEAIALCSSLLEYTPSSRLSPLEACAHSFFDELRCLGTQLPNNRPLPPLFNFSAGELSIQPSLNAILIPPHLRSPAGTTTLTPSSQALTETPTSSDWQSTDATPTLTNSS
# Summary of the method: as §1
# Chain of Glycogen synthase kinase-3 beta (P49841 whole entry): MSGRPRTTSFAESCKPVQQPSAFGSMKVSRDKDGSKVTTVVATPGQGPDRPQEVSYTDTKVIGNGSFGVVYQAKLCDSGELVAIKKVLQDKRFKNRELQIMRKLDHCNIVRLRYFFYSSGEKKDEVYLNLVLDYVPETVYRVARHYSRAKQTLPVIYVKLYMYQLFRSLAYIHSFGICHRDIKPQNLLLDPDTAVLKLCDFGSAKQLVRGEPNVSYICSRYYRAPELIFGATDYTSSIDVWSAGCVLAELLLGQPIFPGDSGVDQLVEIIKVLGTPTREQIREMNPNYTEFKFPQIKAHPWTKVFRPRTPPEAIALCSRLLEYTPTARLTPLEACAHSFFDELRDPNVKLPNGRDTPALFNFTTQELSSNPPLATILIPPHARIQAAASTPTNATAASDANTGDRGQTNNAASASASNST
SMILES,pIC50 [1],pIC50 [2]
"CC[C@@]1(c2cccc(N(C)c3cnccn3)c2)C2=CN=NC2NC2=C1C(=O)CC(C)(C)C2 (stereo partly specified) [US20250313563, Compound 915340]",5.30 to 6.00,6.00 to 7.00
"CC[C@@]1(c2cccc(C3CCOCC3)c2)C2=CN=NC2NC2=C1C(=O)CC(C)(C)C2 (stereo partly specified) [US20250313563, Compound 819639]",< 5.30,5.30 to 6.00
"Cn1cncc1-c1cccc([C@]2(C)C3=C(CC(C)(C)CC3=O)NC3=C2C(CC(C)(C)C)N=N3)c1 (stereo partly specified) [US20250313563, Compound 126014]",6.00 to 7.00,6.00 to 7.00
"CC1(C)CC(=O)C2=C(C1)NC1N=NC(C(F)(F)F)=C1[C@@]21CCc2c(F)cccc21 (stereo partly specified) [US20250313563, Compound 806568]",6.00 to 7.00,5.30 to 6.00
"CC1N=NC2=C1C1(CCCC1)C1=C(CC(C)(C)CC1=O)N2 (stereo unspecified) [US20250313563, Compound 786072]",> 7.00,> 7.00
"CC(=O)N1CC2(C1)CC1(CO2)C2=C(N=NC2)NC2=C1C(=O)CC(C)(C)C2 (stereo unspecified) [US20250313563, Compound 913058]",> 7.00 and 6.00 to 7.00,> 7.00
"CC1(C)CC(=O)C2=C(C1)NC1=C(CN=N1)C21CCC2(CC2)CC1 [US20250313563, Compound 893312]",> 7.00,> 7.00
"CCC1(c2cccc(-c3ccnc4c3CCCC4)c2)C2=CN=NC2NC2=C1C(=O)CC(C)(C)C2 (stereo unspecified) [US20250313563, Compound 932625]",> 7.00,> 7.00
"CCC1(c2cccc(N(CCOC)C(C)=O)c2)C2=CN=NC2NC2=C1C(=O)CC(C)(C)C2 (stereo unspecified) [US20250313563, Compound 893306]",> 7.00,> 7.00
"CC[C@]1(c2ccccc2)C2=CN=NC2NC2=C1C(=O)C[C@]1(CCOC1)C2 (stereo partly specified) [US20250313563, Compound 816884]",5.30 to 6.00,6.00 to 7.00
"CC1(C)CC(=O)C2=C(C1)NC1=C(CN=N1)C21CCC(c2ccccc2)CC1 (stereo unspecified) [US20250313563, Compound 874975]",> 7.00,> 7.00
"CC(C)N1CC2(C1)C1=C(N=NC1)NC1=C2C(=O)CC(C)(C)C1 [US20250313563, Compound 932650]",< 5.30,< 5.30
"CC1(C)CC(=O)C2=C(C1)NC1=C(CN=N1)[C@]21COC2(CCC2)C1 [US20250313563, Compound 917128]",6.00 to 7.00,6.00 to 7.00
"CCC1(c2ccccc2)C2=C(N=NC2)NC2=C1C(=O)C(C)(C)CC2 (stereo unspecified) [US20250313563, Compound 835310]",5.30 to 6.00,6.00 to 7.00
"CCC1(c2ccccc2)C2=C(N=NC2)NC2=C1C(=O)C(C)(C)SC2 (stereo unspecified) [US20250313563, Compound 862028]",5.30 to 6.00,6.00 to 7.00
"CCC1(c2cccc(N3CCCC3)c2)C2=C(CC(C)(C)CC2=O)NC2N=NC(C(F)(F)F)=C21 (stereo unspecified) [US20250313563, Compound 810506]",> 7.00,> 7.00
"CCC1(c2cccc(N(C)c3ccnc(C)c3)c2)C2=CN=NC2NC2=C1C(=O)CC(C)(C)C2 (stereo unspecified) [US20250313563, Compound 917149]",5.30 to 6.00,6.00 to 7.00
"CC1(C)CC(=O)C2=C(C1)NC1N=NC(Br)=C1[C@@]21CCc2c(F)cccc21 (stereo partly specified) [US20250313563, Compound 806938]",5.30 to 6.00,6.00 to 7.00
"CC1(C)CC(=O)C2=C(C1)NC1=C(CN=N1)[C@@]21CCN(S(C)(=O)=O)C1 [US20250313563, Compound 942462]",> 7.00,> 7.00
"CCC1(c2cccc(C(F)(F)F)c2)C2=CN=NC2NC2=C1C(=O)N(c1ccccc1)C2 (stereo unspecified) [US20250313563, Compound 918313]",5.30 to 6.00,6.00 to 7.00
"CCC1(c2cccc(-c3ccnc(O)c3)c2)C2=CN=NC2NC2=C1C(=O)CC(C)(C)C2 (stereo unspecified) [US20250313563, Compound 913352]",> 7.00,> 7.00
"CC1(C)CC(=O)C2=C(C1)NC1N=NC=C1C21CC2(CCOCC2)C1 (stereo unspecified) [US20250313563, Compound 874534]",> 7.00 and 6.00 to 7.00,> 7.00 and 6.00 to 7.00
"CC[C@]1(c2ccc(C)cc2)C2=CN=NC2NC2=C1C(=O)CC(C)(C)C2 (stereo partly specified) [US20250313563, Compound 789457]",5.30 to 6.00,6.00 to 7.00
"CC[C@@]1(c2cccc(S(=O)(=O)CCOC)c2)C2=CN=NC2NC2=C1C(=O)CC(C)(C)C2 (stereo partly specified) [US20250313563, Compound 943546]",< 5.30,5.30 to 6.00
"CCC1(c2cccc(C(F)(F)F)c2)C2=C(N=NC2)NC2=C1C(=O)NC2C (stereo unspecified) [US20250313563, Compound 917295]",5.30 to 6.00,6.00 to 7.00
"CC1(C)CC(=O)C2=C(C1)NC1=C(CN=N1)C21CCN(S(=O)(=O)c2ccccc2F)CC1 [US20250313563, Compound 901465]",> 7.00 and 6.00 to 7.00,> 7.00
"CC1(C)CC(=O)C2=C(C1)NC1N=NC=C1[C@]21CCOC2(CCCC2)C1 (stereo partly specified) [US20250313563, Compound 907327]",5.30 to 6.00,6.00 to 7.00

# Next, values leading:
pIC50 [1],pIC50 [2],SMILES
< 5.30,6.00 to 7.00,"CC[C@@]1(c2cccc(-c3cnn(-c4ccncc4)c3)c2)C2=CN=NC2NC2=C1C(=O)NC(C)(C)C2 (stereo partly specified) [US20250313563, Compound 952912]"
6.00 to 7.00 and < 5.30,> 7.00 and 5.30 to 6.00,"CC[C@@]1(c2cccc(-c3cnc4n3CCCC4)c2)C2=CN=NC2NC2=C1C(=O)CC(C)(C)C2 (stereo partly specified) [US20250313563, Compound 945607]"
6.00 to 7.00,> 7.00,"CC[C@@]1(c2cccc(-c3ccnc4cc(F)cnc34)c2)C2=CN=NC2NC2=C1C(=O)NC(C)(C)C2 (stereo partly specified) [US20250313563, Compound 952758]"
< 5.30,5.30 to 6.00,"CC[C@]1(c2cccc(-c3ccnn3C)c2)C2=CN=NC2NC2=C1C(=O)N[C@]1(CCCOC1)C2 (stereo partly specified) [US20250313563, Compound 948365]"
< 5.30,< 5.30,"CC[C@]1(c2cccc(-c3cnn(C)c3C#N)c2)C2=CN=NC2NC2=C1C(=O)NC(C)(C)C2 (stereo partly specified) [US20250313563, Compound 948814]"
5.30 to 6.00,6.00 to 7.00,"CCC1(c2cccc(-c3cc(C)nc(OC(F)F)c3)c2)C2=CN=NC2NC2=C1C(=O)CC(C)(C)C2 (stereo unspecified) [US20250313563, Compound 945463]"
6.00 to 7.00 and < 5.30,> 7.00 and 6.00 to 7.00,"CC[C@]1(c2cccc(C(F)(F)F)c2)C2=CN=NC2NC2=C1C(=O)N(c1cccnc1)CC2 (stereo partly specified) [US20250313563, Compound 947432]"
6.00 to 7.00,> 7.00,"CC[C@@]1(c2cccc(-c3ccncc3F)c2)C2=C(CC(C)(C)CC2=O)NC2N=NC(C(F)(F)F)=C21 (stereo partly specified) [US20250313563, Compound 947327]"
6.00 to 7.00,> 7.00,"CCC1(c2cccc(C(F)(F)F)c2)C2=CN=NC2NC2=C1C(=O)N(c1cncnc1)CC2 (stereo unspecified) [US20250313563, Compound 948238]"
5.30 to 6.00,6.00 to 7.00,"CC[C@]1(c2cccc(-c3cc(C)ncc3F)c2)C2=C(CC(C)(C)NC2=O)NC2N=NC(C(F)(F)F)=C21 (stereo partly specified) [US20250313563, Compound 949644]"
5.30 to 6.00,6.00 to 7.00,"CC[C@@]1(c2cccc(-c3ccnc(N4CCOCC4)c3)c2)C2=CN=NC2NC2=C1C(=O)NC(C)(C)C2 (stereo partly specified) [US20250313563, Compound 948825]"
< 5.30,5.30 to 6.00,"CC[C@]1(c2cccc(C(F)F)c2)C2=CN=NC2NC2=C1C(=O)NC(C)(C)C2 (stereo partly specified) [US20250313563, Compound 949007]"
< 5.30,5.30 to 6.00,"CC[C@]1(c2cccc(-c3ccnc(C)c3)c2)C2=CN=NC2NC2=C1C(=O)NC1(CCC1)C2 (stereo partly specified) [US20250313563, Compound 949517]"
6.00 to 7.00,6.00 to 7.00,"CC[C@@]1(c2cccc(-c3cnn(-c4ccccc4)c3C(F)(F)F)c2)C2=CN=NC2NC2=C1C(=O)NC(C)(C)C2 (stereo partly specified) [US20250313563, Compound 951837]"
6.00 to 7.00,> 7.00,"CC[C@]1(c2cccc(C(F)(F)F)c2)C2=CN=NC2NC2=C1C(=O)N[C@H](c1ccccc1)C2 (stereo partly specified) [US20250313563, Compound 945361]"
> 7.00 and 6.00 to 7.00,> 7.00,"CC[C@]1(c2cccc(Oc3ncccn3)c2)C2=C(CC(C)(C)NC2=O)NC2N=NC(Cl)=C21 (stereo partly specified) [US20250313563, Compound 951606]"
> 7.00,> 7.00,"CC[C@@]1(c2cccc(-c3cnn4c3CCCC4)c2)C2=C(CC(C)(C)NC2=O)NC2N=NC(C)=C21 (stereo partly specified) [US20250313563, Compound 947817]"
6.00 to 7.00,> 7.00,"CC[C@@]1(c2cccc(N(C)c3cc(C)cc(C)n3)c2)C2=CN=NC2NC2=C1C(=O)CC(C)(C)C2 (stereo partly specified) [US20250313563, Compound 945610]"
6.00 to 7.00,> 7.00,"CCC1(c2cccc(C(F)(F)F)c2)C2=CN=NC2NC2=C1C(=O)N(c1ccsc1)CC2 (stereo unspecified) [US20250313563, Compound 950776]"
> 7.00 and 5.30 to 6.00,> 7.00 and 6.00 to 7.00,"CC[C@]1(c2cccc(C3CCCC3)c2)C2=CN=NC2NC2=C1C(=O)CC(C)(C)C2 (stereo partly specified) [US20250313563, Compound 949397]"
> 7.00,> 7.00,"CCC1(c2cccc(-c3cnn(C)c3)c2)C2=C(CC(C)(C)NC2=O)NC2N=NC(Cl)=C21 (stereo unspecified) [US20250313563, Compound 948767]"
5.30 to 6.00,6.00 to 7.00,"CCC1(c2cccc(-c3ccnc(C)n3)c2)C2=CN=NC2NC2=C1C(=O)CC(C)(C)C2 (stereo unspecified) [US20250313563, Compound 948088]"
> 7.00,> 7.00,"CC1(C)CC(=O)C2=C(C1)NC1=C(CN=N1)C21CCN(S(=O)(=O)c2ccc(Cl)cc2)CC1 [US20250313563, Compound 945661]"
6.00 to 7.00,> 7.00,"CC1(C)CC(=O)C2=C(C1)NC1N=NC=C1[C@@]21CO[C@@H](c2ccccc2)C1 (stereo partly specified) [US20250313563, Compound 946073]"
< 5.30,5.30 to 6.00,"CC[C@@]1(c2cccc(C(F)(F)F)c2)C2=CN=NC2NC2=C1C(=O)N(C(C)(C)C)CC2 (stereo partly specified) [US20250313563, Compound 945634]"
> 7.00 and 5.30 to 6.00,> 7.00 and 6.00 to 7.00,"CC[C@]1(c2cccc(N(C)c3nccc(OC)n3)c2)C2=CN=NC2NC2=C1C(=O)CC(C)(C)C2 (stereo partly specified) [US20250313563, Compound 947336]"
